Here are results for 15 compounds from ChEMBL document CHEMBL3217594, “Structureactivity relationships of methyl-lysine reader antagonists” (Medchemcomm, 2012).

Assay [1] concerns the target T1, Lethal(3)malignant brain tumor-like protein 4 (Homo sapiens, UniProt Q8NA19).
T1 sequence (Q8NA19 whole entry): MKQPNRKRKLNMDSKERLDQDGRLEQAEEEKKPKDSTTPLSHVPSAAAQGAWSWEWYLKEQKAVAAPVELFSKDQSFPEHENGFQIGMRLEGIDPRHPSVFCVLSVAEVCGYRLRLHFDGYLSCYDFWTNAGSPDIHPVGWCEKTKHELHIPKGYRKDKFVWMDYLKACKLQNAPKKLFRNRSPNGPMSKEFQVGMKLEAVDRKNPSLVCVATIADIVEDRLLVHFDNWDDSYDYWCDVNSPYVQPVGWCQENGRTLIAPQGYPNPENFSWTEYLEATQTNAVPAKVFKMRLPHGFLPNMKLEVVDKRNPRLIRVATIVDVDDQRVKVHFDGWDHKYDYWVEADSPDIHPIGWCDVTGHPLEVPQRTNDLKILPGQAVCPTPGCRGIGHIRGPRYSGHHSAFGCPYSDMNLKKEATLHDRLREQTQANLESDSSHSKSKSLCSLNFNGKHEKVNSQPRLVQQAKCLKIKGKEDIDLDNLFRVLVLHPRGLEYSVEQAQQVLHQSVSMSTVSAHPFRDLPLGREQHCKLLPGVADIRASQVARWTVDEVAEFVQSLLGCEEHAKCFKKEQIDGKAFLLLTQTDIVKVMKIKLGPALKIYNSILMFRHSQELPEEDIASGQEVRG
The assay is described as follows: Antagonist activity at L3MBTL4 (unknown origin) assessed as inhibition of L3MBTL4/biotinylated H2AK36Me1 peptide interaction after 30 mins by AlphaScreen assay. A general note: Alpha assays give light when donor and acceptor beads are brought close together.

Assay [2] addresses T2, Scm-like with four MBT domains protein 1 (Homo sapiens) (UniProt Q9UHJ3).
T2 sequence (whole entry): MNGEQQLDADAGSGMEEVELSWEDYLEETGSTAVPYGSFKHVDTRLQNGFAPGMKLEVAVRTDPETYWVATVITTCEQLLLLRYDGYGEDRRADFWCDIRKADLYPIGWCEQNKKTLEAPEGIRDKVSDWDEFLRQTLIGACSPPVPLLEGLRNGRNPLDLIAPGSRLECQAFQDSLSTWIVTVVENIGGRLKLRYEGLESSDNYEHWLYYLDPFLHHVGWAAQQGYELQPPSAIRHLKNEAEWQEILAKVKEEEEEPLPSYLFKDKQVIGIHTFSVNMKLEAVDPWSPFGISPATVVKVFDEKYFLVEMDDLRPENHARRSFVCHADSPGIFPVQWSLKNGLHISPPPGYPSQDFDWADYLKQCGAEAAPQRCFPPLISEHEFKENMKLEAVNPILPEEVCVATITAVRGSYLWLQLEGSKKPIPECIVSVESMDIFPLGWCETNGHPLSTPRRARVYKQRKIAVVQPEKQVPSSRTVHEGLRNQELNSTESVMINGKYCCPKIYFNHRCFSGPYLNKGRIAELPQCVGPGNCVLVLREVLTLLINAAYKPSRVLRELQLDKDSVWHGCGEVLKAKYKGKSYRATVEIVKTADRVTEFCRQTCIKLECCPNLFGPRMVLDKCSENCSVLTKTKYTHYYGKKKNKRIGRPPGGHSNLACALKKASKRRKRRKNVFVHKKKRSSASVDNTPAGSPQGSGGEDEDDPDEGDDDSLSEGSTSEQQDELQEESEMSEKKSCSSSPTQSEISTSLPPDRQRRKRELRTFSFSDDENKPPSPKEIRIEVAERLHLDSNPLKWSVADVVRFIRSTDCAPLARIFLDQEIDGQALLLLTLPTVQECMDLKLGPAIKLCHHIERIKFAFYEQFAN
The assay is described as follows: Antagonist activity at SFMBT1 (unknown origin) assessed as inhibition of SFMBT1/biotinylated H3K9Me1 peptide interaction at 30 uM after 30 mins by AlphaScreen assay.

Assay [3] deals with T3, Lethal(3)malignant brain tumor-like protein 1 (Homo sapiens) (UniProt Q9Y468).
T3 sequence (whole entry): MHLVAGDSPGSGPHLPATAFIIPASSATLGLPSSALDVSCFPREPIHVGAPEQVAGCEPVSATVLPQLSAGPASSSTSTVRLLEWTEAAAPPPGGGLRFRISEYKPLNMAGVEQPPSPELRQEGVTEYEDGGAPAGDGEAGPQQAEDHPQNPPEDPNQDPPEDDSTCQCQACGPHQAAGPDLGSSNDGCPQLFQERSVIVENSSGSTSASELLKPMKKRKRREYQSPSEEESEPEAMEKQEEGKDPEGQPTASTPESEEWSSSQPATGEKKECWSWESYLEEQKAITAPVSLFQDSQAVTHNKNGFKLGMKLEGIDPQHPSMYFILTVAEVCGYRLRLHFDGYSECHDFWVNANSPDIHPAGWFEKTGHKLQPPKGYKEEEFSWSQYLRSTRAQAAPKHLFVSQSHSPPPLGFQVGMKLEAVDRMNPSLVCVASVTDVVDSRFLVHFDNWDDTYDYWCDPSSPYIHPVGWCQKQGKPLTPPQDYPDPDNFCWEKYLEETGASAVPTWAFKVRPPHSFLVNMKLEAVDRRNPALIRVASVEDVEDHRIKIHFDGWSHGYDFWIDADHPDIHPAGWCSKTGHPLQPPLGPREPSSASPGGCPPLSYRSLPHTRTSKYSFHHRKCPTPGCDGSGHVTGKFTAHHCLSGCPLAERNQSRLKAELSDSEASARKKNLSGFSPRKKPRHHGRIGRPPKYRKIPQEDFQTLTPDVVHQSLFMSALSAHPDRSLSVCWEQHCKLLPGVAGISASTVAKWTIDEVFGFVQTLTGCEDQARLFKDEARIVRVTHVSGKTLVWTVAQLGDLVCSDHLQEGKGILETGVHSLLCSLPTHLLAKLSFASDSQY
The settings on record: Plus RIL, 30 uM.

Assay [4] has as its target T4, Lethal(3)malignant brain tumor-like protein 4 (Homo sapiens) (UniProt Q8NA19).
T4 sequence (whole entry): T1 sequence (Q8NA19 whole entry)
The assay is described as follows: Antagonist activity at L3MBTL4 (unknown origin) assessed as inhibition of L3MBTL4/biotinylated H2AK36Me1 peptide interaction at 30 uM after 30 mins by AlphaScreen assay.

Assay [5] concerns the target T5, Chromobox protein homolog 7 (Homo sapiens) (UniProt O95931).
T5 sequence (whole entry): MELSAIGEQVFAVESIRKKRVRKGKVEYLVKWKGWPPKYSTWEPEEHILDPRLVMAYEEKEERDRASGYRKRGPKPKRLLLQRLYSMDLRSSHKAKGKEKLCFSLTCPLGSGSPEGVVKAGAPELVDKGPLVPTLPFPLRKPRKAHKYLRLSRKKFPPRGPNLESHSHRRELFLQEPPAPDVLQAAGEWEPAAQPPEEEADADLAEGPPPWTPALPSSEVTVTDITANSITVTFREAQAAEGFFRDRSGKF
Nature of the assay: Antagonist activity at Flag-tagged CBX7 (unknown origin) assessed as inhibition of CBX7/biotinylated H3K9Me3 peptide interaction at 30 uM after 30 mins by AlphaScreen assay.

Calls of active or inactive are those of the source. The calls are words filed in the database; no cut-off is given here.

The IC50 is the concentration needed to halve the response being measured. As usually defined, the inhibition is the share of the control response that was lost under treatment. On to `O=C(c1cccc(Br)c1)N1CCN(C2CCCC2)CC1`, for which the IC50 in assay [1] is above 30 µM. In addition, the inhibition result in assay [2], in assay [3] and in assay [4] was “inactive” throughout. The inhibition in assay [5] was found to be 1%.
Turning to `O=C(c1cccc(Br)c1)N1CCC(N2CCCC2)C1` (stereo not drawn), the IC50 in assay [1] was above 30 µM. Also, the inhibition result in assay [2] and in assay [4] was “inactive” each time. In addition, the values for the inhibition in assay [3] and in assay [5] were 18% and 4%, respectively.
Take `C[N+]1(C2CCN(C(=O)c3cccc(Br)c3)CC2)CCCC1`: the IC50 in assay [1] was above 30 µM. Further, the inhibition result in assay [2], in assay [3] and in assay [4] was “inactive” in each case. For the same compound, the inhibition in assay [5] was 17%.
As to `O=C(O)c1cccc(C(=O)N2CCC(N3CCCC3)CC2)c1`, in assay [1], the IC50 is above 30 µM. Further, in assay [2], the inhibition result is “inactive”. In addition, the inhibition in assay [3] was found to be 31%; in assay [4], 26%; in assay [5], 4%.
The corresponding values for `O=C(c1cccc(Br)c1)N1CCC(C2CCCN2)CC1` (stereo not drawn) are above 30 µM, “inactive”, 6%, “inactive” and “inactive”.
For `Brc1cccc(CN2CCC(N3CCCC3)CC2)c1` the same measures were above 30 µM, “inactive”, 20%, 10% and “inactive”.
For `CN1CCCC1C1CCN(C(=O)c2cccc(Br)c2)CC1` (stereo not drawn) the same measures were above 30 µM, “inactive”, 3%, “inactive” and “inactive”.
`O=S(=O)(c1cccc(Br)c1)N1CCC(N2CCCC2)CC1`: the IC50 in assay [1] was above 30 µM. Moreover, the inhibition entry in assay [2] and in assay [5] was “inactive” in each case. For the same compound, the inhibition in assay [3] is 48%; in assay [4], 6%.
On to `CC(c1cccc(Br)c1)N1CCC(N2CCCC2)CC1` (racemic), for which the IC50 in assay [1] is above 30 µM. Also, the inhibition result in assay [2] and in assay [5] was “inactive” throughout. The inhibition was 25% in assay [3] and 13% in assay [4].
For `O=C(c1cccc(Br)c1)N1CCC(N2CCCC2)CC1`, the half-maximal inhibitory concentration (IC50) in assay [1] is 15.6 µM. The inhibition in assay [2] is 12%; in assay [5], 11%.
As for `CNC1CCN(C(=O)c2cccc(Br)c2)CC1`, in assay [1], the IC50 is above 30 µM. The inhibition result in assay [2], in assay [3] and in assay [4] was “inactive” throughout. In addition, the inhibition in assay [5] was 3%.
`CN(C)C1CCN(C(=O)c2cccc(Br)c2)CC1`: in assay [1], the IC50 was above 30 µM. Further, the inhibition result in assay [2], in assay [4] and in assay [5] was “inactive” each time. Also, the inhibition in assay [3] was determined as 5%.
In the case of `O=C(c1cccc(Br)c1)N1CCC(N2CCCCC2)CC1`, the IC50 in assay [1] is above 30 µM. Further, the inhibition result in assay [2] and in assay [4] was “inactive” throughout. Moreover, the inhibition in assay [3] was found to be 5%; in assay [5] it was 3%.
As for `CC1CCCN1C1CCN(C(=O)c2cccc(Br)c2)CC1` (stereo not drawn), the 50% inhibitory concentration (IC50) in assay [1] is above 30 µM. The inhibition result in assay [2], in assay [4] and in assay [5] was “inactive” each time. Further, the inhibition in assay [3] is 6%.
For `O=C(c1cccc(Br)c1)N1CCC(N2CCC2)CC1`, in assay [1], the IC50 is above 30 µM. Further, the inhibition result in assay [2] was “inactive”. For the same compound, the values for the inhibition in assay [3], in assay [4] and in assay [5] were 32%, 4% and 11%, respectively.
